Results on four compounds are retold here after paper doi:10.1101/2024.07.10.602960v2, “Contrasting Kinetics of Highly Similar Chloroalkane Reductive Dehalogenases” (biorxiv, 2024).

For experiment [1], the system named is T1, AcdA.
T1 construct: expressed from p15TVL-acdA with pBAD42-BtuCEDFB in E. coli BL21(DE3) suf strain; partially purified; 48 kDa; cobamide and two iron-sulfur clusters
In words: GC-FID product formation in gas-tight syringe, […] min; Michaelis-Menten fit. It is filed as biochemical, Dehalobacter sp. The following applies: 50 mM Tris-HCl pH 7.5, 1 mM methyl viologen, 5 mM Ti(III) citrate, anaerobic, 24 °C.

For experiment [2], the system named is T1, AcdA. As to the kind of experiment: GC-FID, total consumption in gas-tight syringe, […] min; substrate-inhibition Michaelis-Menten fit. It is filed as biochemical, Dehalobacter sp. The following applies: 50 mM Tris-HCl pH 7.5, 1 mM methyl viologen, 5 mM Ti(III) citrate, anaerobic, 24 °C.
The target of experiment [3] is T1, AcdA. The experiment is described as above. The class given is biochemical, Dehalobacter sp. The following applies: 50 mM Tris-HCl pH 7.5, 1 mM methyl viologen, 5 mM Ti(III) citrate, anaerobic, 24 °C. This is another data set of the same source.
Experiment [4] deals with T2, CfrA (Dehalobacter sp. CF, UniProt K4LFB7).
T2 construct: expressed from p15TVL-cfrA with pBAD42-BtuCEDFB in E. coli BL21(DE3) suf strain; partially purified; 48 kDa; cobamide and two iron-sulfur clusters
The description is as above. It is filed as biochemical. The following applies: 50 mM Tris-HCl pH 7.5, 1 mM methyl viologen, 5 mM Ti(III) citrate, anaerobic, 24 °C.

For experiment [5], the target named is T3, TmrA (Dehalobacter sp. UNSWDHB, UniProt T0I6H2).
T3 construct: expressed from p15TVL-tmrA with pBAD42-BtuCEDFB in E. coli BL21(DE3) suf strain; partially purified; 48 kDa; cobamide and two iron-sulfur clusters
T3 sequence (T0I6H2 51-456): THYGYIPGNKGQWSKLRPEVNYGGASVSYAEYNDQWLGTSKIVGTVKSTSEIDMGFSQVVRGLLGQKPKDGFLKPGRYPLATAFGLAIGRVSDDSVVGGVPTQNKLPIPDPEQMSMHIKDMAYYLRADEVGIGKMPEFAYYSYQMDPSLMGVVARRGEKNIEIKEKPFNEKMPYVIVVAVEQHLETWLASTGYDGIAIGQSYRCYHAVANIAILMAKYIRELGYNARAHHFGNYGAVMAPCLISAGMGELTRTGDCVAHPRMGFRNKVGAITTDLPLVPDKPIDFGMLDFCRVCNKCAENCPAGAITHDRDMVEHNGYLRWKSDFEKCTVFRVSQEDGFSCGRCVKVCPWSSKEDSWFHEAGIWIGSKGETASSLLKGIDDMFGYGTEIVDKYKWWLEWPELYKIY
Described as above. The note with it: 50 mM Tris-HCl pH 7.5, 1 mM methyl viologen, 5 mM Ti(III) citrate, anaerobic, 24 °C. The class given is biochemical.

For experiment [6], the target named is AcdA. The note with it: 50 mM Tris-HCl pH 7.5, 1 mM methyl viologen, 5 mM Ti(III) citrate, anaerobic, 24 °C; substrate inhibition.
The test system of experiment [7] is AcdA. The following applies: 50 mM Tris-HCl pH 7.5, 1 mM methyl viologen, 5 mM Ti(III) citrate, anaerobic, 24 °C.
For experiment [8], the target named is T4, CfrA (Dehalobacter sp. CF, UniProt K4LFB7).
T4 construct: expressed from p15TVL-cfrA with pBAD42-BtuCEDFB in E. coli BL21(DE3) suf strain; partially purified; 48 kDa; cobamide and two iron-sulfur clusters
T4 sequence (K4LFB7 43-456 limits assumed): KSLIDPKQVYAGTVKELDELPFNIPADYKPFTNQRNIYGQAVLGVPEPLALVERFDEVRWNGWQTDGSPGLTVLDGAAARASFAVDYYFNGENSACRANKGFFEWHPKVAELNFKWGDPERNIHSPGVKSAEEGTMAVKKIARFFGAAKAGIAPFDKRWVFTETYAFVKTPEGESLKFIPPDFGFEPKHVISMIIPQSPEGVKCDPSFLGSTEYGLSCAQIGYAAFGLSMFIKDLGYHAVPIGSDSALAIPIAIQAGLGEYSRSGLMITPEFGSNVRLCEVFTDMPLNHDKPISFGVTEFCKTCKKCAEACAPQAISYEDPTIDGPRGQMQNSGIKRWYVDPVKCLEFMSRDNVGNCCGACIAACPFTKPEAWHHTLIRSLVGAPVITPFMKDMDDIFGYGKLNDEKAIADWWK
As to the kind of experiment: inhibition of chloroform dechlorination, GC-FID, […] min; single TCE concentration fit. It is filed as biochemical. The following applies: uncompetitive; chloroform as substrate, about […] TCE, […] Tris-HCl pH […] methyl viologen, Ti(III) citrate, […] °C.

Experiment [9] deals with T3, TmrA. The experiment is described as above. The note with it: uncompetitive; chloroform as substrate, about 45 µM TCE, 50 mM Tris-HCl pH 7.5, 1 mM methyl viologen, Ti(III) citrate, 20 °C. The class given is biochemical.

Where two headings read alike, the source gives them in different places.

In general, Km refers to the concentration of substrate that gives half-maximal velocity. As for `CC(Cl)(Cl)Cl` [1,1,1-trichloroethane], the Km in the experiment with AcdA [1] amounted to 280 ± 100 µM.
For `ClCC(Cl)Cl` [1,1,2-trichloroethane], the Km in the experiment on AcdA [2] was 120 ± 20 µM. Also, the entries for the “KI,TCA” value on AcdA [3], at CfrA [4] and at TmrA [5] were 2 ± 0.55 mM, 7.1 ± 4.4 mM and 6.2 ± 3.7 mM, respectively.
`ClC(Cl)Cl` [chloroform]: on AcdA [6], the “KI,CF” value came to 0.61 ± 0.24 mM. Moreover, in the experiment with AcdA [7], the Km is 29 ± 8 µM.
As to `ClC=C(Cl)Cl` [trichloroethene], the “KI,TCE” value on CfrA [8] and on TmrA [9] was “All three enzymes showed better model fits with uncompetitive inhibition” each time.
